Laboratory results taken from patent publication US7897602B2, “Indolinone compounds as kinase inhibitors” (Development Center for Biotechnology, priority 2009, dated 2011).

Tests used:
[1] = target: T1, Flt3 kinase (Homo sapiens, UniProt P36888); assay: Flt3 kinase assay (33P incorporation into Poly(Glu-Tyr)); format: biochemical; conditions: 100 nM test compound; read-out: Inhibition at 100 nM (%) Flt-3
T1 construct: recombinant N-terminal 6×His-tagged Flt3 kinase domain construct expressed from baculovirus; 6xHis (N); made in house
T1 sequence (P36888 610-943 limits assumed): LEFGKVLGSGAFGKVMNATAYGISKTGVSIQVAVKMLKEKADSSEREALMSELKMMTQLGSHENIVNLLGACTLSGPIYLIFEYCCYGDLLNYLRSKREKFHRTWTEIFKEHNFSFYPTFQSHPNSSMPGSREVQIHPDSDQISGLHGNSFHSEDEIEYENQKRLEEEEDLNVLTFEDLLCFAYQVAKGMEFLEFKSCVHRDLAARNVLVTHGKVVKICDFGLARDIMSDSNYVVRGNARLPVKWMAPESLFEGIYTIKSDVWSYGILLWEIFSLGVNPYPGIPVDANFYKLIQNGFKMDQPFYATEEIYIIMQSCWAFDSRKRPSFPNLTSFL
Outline: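 Baculovirus-expressed His-tagged Flt3 kinase domain (5 ng) with Poly(Glu-Tyr) 4:1 substrate, 100 μM ATP plus [33P]-γ-ATP, in MOPS pH 7.0 buffer, 30 min at 30 °C. Compound tested at a single 100 nM concentration; filter-bound radioactivity counted and percent inhibition calculated relative to DMSO control.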

[2] = target: T2, PDGFR-β kinase (Homo sapiens, UniProt P09619); assay: PDGFR-β kinase assay (33P incorporation into Poly(Glu-Tyr)); format: biochemical; conditions: 500 nM test compound
T2 construct: recombinant N-terminal 6×His-tagged PDGFR-β kinase domain construct expressed by baculovirus; 6xHis (N); made in house
T2 sequence (P09619 600-962 limits assumed): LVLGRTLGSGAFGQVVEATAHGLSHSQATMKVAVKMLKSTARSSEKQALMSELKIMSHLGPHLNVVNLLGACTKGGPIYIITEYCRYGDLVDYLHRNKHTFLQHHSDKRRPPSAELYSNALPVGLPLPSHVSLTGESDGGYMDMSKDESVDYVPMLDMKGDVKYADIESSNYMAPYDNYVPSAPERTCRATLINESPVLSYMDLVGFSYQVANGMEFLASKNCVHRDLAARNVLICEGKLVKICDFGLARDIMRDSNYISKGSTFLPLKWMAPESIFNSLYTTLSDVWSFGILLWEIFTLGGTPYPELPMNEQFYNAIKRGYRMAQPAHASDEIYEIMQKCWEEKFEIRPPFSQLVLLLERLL
Outline: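 His-tagged PDGFR-β kinase domain (55 ng) with Poly(Glu-Tyr) 4:1, 30 μM ATP plus [33P]-γ-ATP, pH 7.0 MnCl2 buffer, and 500 nM compound for 30 min at 30° C. Filter-bound radioactivity counted; inhibition computed relative to DMSO control.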

| inhibition at 0.1 µM [1] [%] | inhibition at 0.5 µM [2] [%] | SMILES |
| --- | --- | --- |
| 10.7 | 1.4 | CCOC(=O)CCc1c(/C=C2\C(=O)Nc3ccc(NC(=O)c4ccc(OC)cc4)cc32)[nH]c2c1C(=O)CCC2 [DCB-70141, (Z)-ethyl 3-(2-((5-(4-methoxybenzamido)-2-oxoindolin-3-ylidene)methyl)-4-oxo-4,5,6,7-tetrahydro-1H-indol-3-yl)propanoate] |
| 6 | 1 | COc1ccc(C(=O)Nc2ccc3c(c2)/C(=C/c2[nH]c4c(c2CCC(=O)O)C(=O)CCC4)C(=O)N3)cc1 [DCB-70143, (Z)-3-(2-((5-(4-methoxybenzamido)-2-oxoindolin-3-ylidene)methyl)-4-oxo-4,5,6,7-tetrahydro-1H-indol-3-yl)propanoic acid] |
| 9.7 | 16.1 | CN(c1cccc(Cl)c1)S(=O)(=O)c1ccc2c(c1)/C(=C/c1[nH]c3c(c1CCC(=O)O)C(=O)CCCC3)C(=O)N2 [DCB-70148, (Z)-3-(2-((5-(N-(3-chlorophenyl)-N-methylsulfamoyl)-2-oxoindolin-3-ylidene)methyl)-4-oxo-1,4,5,6,7,8-hexahydrocyclohepta[b]pyrrol-3-yl)propanoic acid] |
| 7.3 | 10.8 | O=C(O)CCc1c(/C=C2\C(=O)Nc3ccc(S(=O)(=O)Nc4ccc(F)c(Cl)c4)cc32)[nH]c2c1C(=O)CCCC2 [DCB-70149, (Z)-3-(2-((5-(N-(3-chloro-4-fluorophenyl)sulfamoyl)-2-oxoindolin-3-ylidene)methyl)-4-oxo-1,4,5,6,7,8-hexahydrocyclohepta[b]pyrrol-3-yl)propanoic acid] |
